Where two headings read alike, the source gives them in different places.
What was measured:
[1] = test system: type I interferon expression in THP-1 cells; conditions: reference compound 2′3′-RR-(AXA) in patent CN108430503A; read-out: EC50 value of the control drug; cited from earlier work
CT-26-Luc cells = test: Anticancer activity assay in CT-26 mouse tumor model; format: in vivo, mice; conditions: 1 mg/kg intratumoral injection, once every two days, three times, FIG. 4 and FIG. 5
Experimental: Anticancer Activity Assay of the Compound 8
Mice: BABL/C female mice, weight 18 g to 22 g. The source is the animal experiment center in Guangdong province, and the mice are fed with pellet feed and freely eat and drink water.
Tumor Cell Lines: CT-26-Luc Cells […]
The administration method includes the following steps: the administration was started at the 10th day after tumor inoculation growth, and 50 microliters/mouse was administered once every two days for a total of three times by intratumoral injection. The growth of tumors in mice was detected by chemiluminescence using the IVIS Spectrum Imaging System. […] After imaging, fluorescence values were converted to photon numbers and the total number of fluorescence photons for each experimental group was counted. […] In which the numbers in FIG. 4a, FIG. 4b, FIG. 4c, FIG. 4d, FIG. 4e and FIG. 4f represent the total number of fluorescence photons in the circular region (ROI, region of interest), and FIG. 4g and FIG. 4h are statistical graphs of the total number of fluorescence photons for each experimental group, respectively. […]

[2] = test system: type I interferon expression in THP-1 cells; test: Type I interferon activity assay in monocytic cell line THP-1 (THP-1-Lucia) cells; format: cell-based; conditions: for EC50: Homo sapiens, THP-1, dose-response curves, serial dilutions, FIG. 3, read-out: EC50 causing type I interferon expression in THP-1 cell line
Experimental: Activity Assay of Two Cyclic Dinucleotide Prodrug Molecules in Monocytic Cell Line THP-1 Cells
The THP-1-Lucia cells confluency reached about 80%, and the compound 8, the compound 16 and the drug ADU-S100 are directly dissolved into a culture medium according to a certain concentration and added into a 24-well plate, wherein four wells are parallel. The cells were maintained under the culture condition of 37° C. and 5% CO2 for 24 h. After the end of the culture, luciferase activity was measured. Wherein, the test results of the type I interferon of the compound 8, the compound 16 and the drug ADU-S100 in the monocyte cell line THP-1 under the action concentration of 10 μM are shown in FIG. 2; EC50 values for the compound 8 and the compound 16 to cause type I interferon expression in THP-1 cell lines were then determined by dose-response curves for serial dilutions at various concentrations, as shown in FIG. 3.

[3] = Determination of the oil-water partition coefficient log P (n-octanol/water, HPLC); format: physicochemical; conditions: pH 7; n-octanol / purified water (10 mM K2HPO4 pH7.0), HPLC peak area ratio, three repeats
Experimental: Determination of the Oil-Water Partition Coefficient Log P of the Two Cyclic Dinucleotide Prodrug Molecules.
1) Preparing the compound solution: a certain amount of the compound 8, the compound 16 and the compound cddA35 were weighed and dissolved in DMSO solutions respectively to prepare mother solutions with a concentration of 1 mg/mL. 2) 20 μL of the prepared mother liquor was added to an EP tube containing a mixture of 1 mL of n-octanol and 1 mL of purified water (10 mM K2HPO4 pH7.0), vortexed for 2 h with shaking, and allowed to stand overnight at 4° C. for phase separation, and 400 μL of solution from each phase was separated. Centrifuging at 3000 rpm for 5 min, filtering with corresponding […] filter membrane, measuring the two-phase absorption peak area under the same HPLC parameter condition, repeating the experiment for three times, and calculating log value of the peak area ratio of n-octyl alcohol phase and water phase to obtain the log P value of the target compound, as shown in Table 2.
HPLC conditions: the instrument used by an Agilent 1260 HPLC, column: Agilent ZORABX SB-C185 μm [4.6×150 mm], column temperature 25° C., sample injection 10 μL, detection wavelength was […], chromatographic gradient method as shown in Table 1 below.

STING = test: Dual-fluorescence reporter gene activity assay in HEK293T cells (hSTING-wt, IFNβ promoter luciferase); format: cell-based, human; conditions: 5 μM, without any transfection reagent, 24 h, FIG. 1
Experimental: Activity assay of two cyclic dinucleotide prodrug molecules in HEK293T cells
The principle is as follows: dual-fluorescence reporter gene experiments: After entering a cell, the cyclic dinucleotide prodrug molecule passes through thioesterase in the cytoplasm of the cell or a reducing environment, so that thioester bond breakage or disulfide bond breakage is carried out, then an intermediate is obtained, a sulfur atom at a p position can nucleophilically attack a carbon atom at the a position, cyclic thioethane is removed, cyclic dinucleotides with a phosphodiester structure of a parent drug with negative charges are released, the intracellular STING protein is combined and activated, interferon regulatory factor 3 (IRF3) is phosphorylated, phosphorylated IRF3 enters into the nucleus and combined with the promoter region of a interferon-β gene to cause the expression of interferon, and based on these, the interferon gene promoter is introduced into a promoter of firefly luciferase, so that the cell activity of the prodrug molecule can be measured by using a dual-fluorescence reporter gene method.
(1) preparing the compound solution: the compound 8 and the compound 16 were dissolved in DMSO, respectively, to obtain a final concentration of 1 mM. cddA35 was dissolved in water and similarly prepared at a concentration of 1 mM. […]

SMILES | EC50 [1] | growth of the tumor in the mice (CT-26-Luc cells) | EC50 [2] | logP [3] | expression of type I interferon in THP-1 cell line ([2]; action concentration of 10 μM, without any transfection reagent, 24 h, FIG. 2, activity much higher than ADU-S100) | dual-fluorescence result: crossing cell membranes and activating STING pathway / expression of interferon (STING)
Nc1ncnc2c1ncn2[C@@H]1O[C@@H]2COP(=O)([S-])O[C@@H]3[C@H](O)[C@@H](COP([O-])(=S)O[C@H]2[C@H]1O)O[C@H]3n1cnc2c(N)ncnc21.[Na+].[Na+] (stereo partly shown) [ADU-S100] | 41500 nM | only controlled | – | – | – | –
CC(C)(C)C(=O)SCCOP1(=O)OC[C@H]2O[C@@H](n3cnc4c(N)ncnc43)C[C@H]2OP(=O)(OCCSC(=O)C(C)(C)C)OC[C@H]2O[C@@H](n3cnc4c(N)ncnc43)CC2O1 (stereo partly shown) [Compound 8] | – | – | 4.4 nM | 1.93 | – | –
Nc1ncnc2c1ncn2[C@H]1CC2OP(=O)(OCCSSc3ccccn3)OC[C@H]3O[C@@H](n4cnc5c(N)ncnc54)CC3OP(=O)(OCCSSc3ccccn3)OC[C@H]2O1 (stereo partly shown) [Compound 16] | – | – | 355 nM | 0.85 | strong expression of type I interferon | can autonomously cross cell membranes without any transfection reagent
Nc1ncnc2c1ncn2[C@H]1CC2OP(=O)(O)OC[C@H]3O[C@@H](n4cnc5c(N)ncnc54)CC3OP(=O)(O)OC[C@H]2O1 (stereo partly shown) [cddA35, reference compound] | – | – | – | -3.43 | – | hardly crosses cell membranes
